# From PMC8113231 (Nature Communications, 2021)
# Where a SMILES comes first, the peptide text is derived from it. Bridges are numbered along the chain shown (N, C = ends). [ ]: non-standard residue; d: D form. NMeF = CN[C@@H](Cc1ccccc1)C(=O)O; NMeS = CN[C@@H](CO)C(=O)O; Sar = CNCC(=O)O
# Key:
# in vitro = conditions: human, serum
# H1N1/Tokyo2619 = format: cell-based, influenza A virus
# HA on H2N2 virions = format: binding, influenza A virus
# [1] = test system: HA from A/California/07/2009 (H1N1); format: cell-based, influenza A virus
# [2] = test system: A/duck/Hokkaido/Vac-3/07 (H5N1/Vac-3); experiment: microbe, parasite or virus in culture; format: cell-based, influenza A virus
# HA on H1N1 virions = format: binding, influenza A virus
# [3] = test system: A/Vietnam/UT3040/2004 (H5N1/Vietnam); parameters: species or system cynomolgus monkeys; conditions: cynomolgus monkey, in vivo
# [4] = test system: A/whooper swan/Hokkaido/1/08 (H5N1); parameters: species or system BALB/c mice; conditions: mouse, in vivo, 1.9 mg/kg/day
# H5N1/Vac-3 = format: cell-based, influenza A virus
compound,measurement,setting,value
CC(C)[C@@H]1NC(=O)[C@H]([C@@H](C)O)NC(=O)[C@H](Cc2ccc(O)cc2)NC(=O)[C@H](Cc2c[nH]cn2)NC(=O)[C@H](CO)N(C)C(=O)[C@H](CO)NC(=O)[C@H](Cc2ccccc2)N(C)C(=O)[C@H](Cc2ccccc2)N(C)C(=O)[C@H](CC(=O)O)NC(=O)CN(C)C(=O)[C@H]([C@@H](C)O)NC(=O)[C@H](Cc2c[nH]c3ccccc23)NC(=O)CSC[C@@H](C(N)=O)NC(=O)[C@H](CCCNC(=N)N)NC(=O)[C@@H]2CCCN2C1=O [iHA-100] ({CH2CO}-WT[Sar]D[NMeF][NMeF]S[NMeS]HYTVPRC-NH2; thioether N-15),half-life,in vitro,~3.85 h
same,H1N1/Tokyo2619 virus-mediated RBC membrane fusion,H1N1/Tokyo2619,inhibited by iHA-100 in a dose-dependent manner
same,Binding to HA on H2N2 virions (pull-down),HA on H2N2 virions,bound to HA
same,Polykaryon formation mediated by H1 HA,[1],significantly inhibited
same,Plaque formation of H5N1/Vac-3 (screen of 28 candidates),[2],inhibited plaque formation
same,Size of viral plaques,[2],reduced the size of viral plaques
same,Binding to HA on H1N1 virions (pull-down),HA on H1N1 virions,bound to HA
same,Inhibition of hemagglutination,chicken red blood cells,could not
same,IFN-γ in the lungs,[3],significantly reduced
same,IL-6 in the lungs,[3],significantly reduced
same,IL-15 in the lungs,[3],decreased
same,Virus titers in autopsy lung samples at 7 dpi,[3],low virus titers in the lungs of two monkeys
same,Body temperature,[3]; 3 mg/kg/day,returned to a normal range
same,Bodyweight loss,[3]; 3 mg/kg/day,relatively attenuated
same,Lung weights,[3]; 3 mg/kg/day,relatively lower
same,"Virus in nasal, oral and bronchial swabs",[3]; 3 mg/kg/day,disappeared at 3–6 dpi
same,"Virus shedding after treatment (3–7 dpi), area under the curve",[3]; po,significantly lower virus shedding
same,Progression of pneumonia (histopathology),[4],prevented the progression of pneumonia
same,Survival,[4],40%
same,"Survival rate, administration started 0 days after infection",[4],comparable with the survival rate in the zanamivir-treated group
same,Viral replication in the lungs,[4],significantly suppressed
same,Virus-related increase in lung weight,[4],significantly suppressed
same,H5N1/Vac-3 virus-mediated RBC membrane fusion,H5N1/Vac-3,inhibited by iHA-100 in a dose-dependent manner
